Results: patent US20170150719A1, “FUNGICIDAL PYRAZOLES AND THEIR MIXTURES” (E I DU PONT DE NEMOURS AND COMPANY, priority 2010, published 2017)
Marks after values point to notes of the source that are not given here.

How the values were obtained:
Septoria tritici = experiment: Test F: wheat leaf blotch, preventive spray on wheat seedlings, visual disease rating; assay type: in vivo; design: pest or weed control: dose or concentration left out as unconfirmed; conditions: for pest or weed control / Test F rating (% disease control), marked * / Test F rating (% disease control): preventive spray; for pest or weed control / Test F rating (% disease control), marked *: rating marked with asterisk (*), other test suspension concentration than unmarked ratings; for Test F rating (% disease control): rating without asterisk
Text: A hyphen (-) indicates no test results.

[1] = system: Puccinia recondita f. sp. tritici; experiment: Test H: wheat leaf rust, preventive spray on wheat seedlings, visual disease rating; conditions: for pest or weed control at 40 µg/mL: read-out: Test H rating (% disease control), marked *, wheat leaf rust, preventive spray; for pest or weed control at 40 µg/mL / Test H rating (% disease control), marked *: rating marked with asterisk (*), other test suspension concentration than unmarked ratings; for Test H rating (% disease control), marked * / Test H rating (% disease control): wheat leaf rust, preventive spray; for Test H rating (% disease control): rating without asterisk
Botrytis cinerea = experiment: Test A: tomato Botrytis, preventive spray on tomato seedlings, visual disease rating; conditions: for pest or weed control at 40 µg/mL: read-out: Test A rating (% disease control), marked *, tomato Botrytis, preventive spray; for pest or weed control at 40 µg/mL / Test A rating (% disease control), marked *: rating marked with asterisk (*), other test suspension concentration than unmarked ratings; for Test A rating (% disease control), marked * / Test A rating (% disease control): tomato Botrytis, preventive spray; for Test A rating (% disease control): 0 = no control relative to controls, rating without asterisk
[2] = system: Blumeria graminis f. sp. tritici; experiment: Test I: wheat powdery mildew, preventive spray on wheat seedlings, visual disease rating; conditions: for pest or weed control at 40 µg/mL: read-out: Test I rating (% disease control), marked *, wheat powdery mildew, preventive spray; for pest or weed control at 40 µg/mL / Test I rating (% disease control), marked *: rating marked with asterisk (*), other test suspension concentration than unmarked ratings; for Test I rating (% disease control), marked * / Test I rating (% disease control): wheat powdery mildew, preventive spray; for Test I rating (% disease control): rating without asterisk
Septoria nodorum = experiment: Test E: Septoria glume blotch, preventive spray on wheat seedlings, visual disease rating; conditions: Septoria glume blotch on wheat, preventive spray; rating marked with asterisk (*), other test suspension concentration than unmarked ratings
[3] = Botrytis cinerea, in Solanum lycopersicum
[4] = Blumeria graminis, in Triticum aestivum

Compound	Test F rating (% disease control) (Septoria tritici; 100 = 100% disease control) [%]	Test H rating (% disease control) ([1]; 100 = 100% disease control) [%]	Test A rating (% disease control) (Botrytis cinerea; 100 = 100% disease control) [%]	Test I rating (% disease control) ([2]; 100 = 100% disease control) [%]	also measured
Cc1cccc(C)c1Nc1c(-c2ccc(F)cc2Cl)c(C)nn1C [Compound 271, 4-(2-chloro-4-fluorophenyl)-N-(2,6-dimethylphenyl)-1,3-dimethyl-1H-pyrazol-5-amine]	–	–	–	–	pest or weed control (Septoria tritici; Zymoseptoria tritici): 100%; pest or weed control at 40 µg/mL [1]: 97%; pest or weed control at 40 µg/mL (Botrytis cinerea; [3]): 99%; pest or weed control at 40 µg/mL [2, 4]: 98%
Cc1nn(C)c(Nc2c(Cl)cccc2Cl)c1-c1ccc(F)cc1Cl [compound 255]	–	–	–	–	Test F rating (% disease control), marked * (Septoria tritici): 100* %; Test H rating (% disease control), marked * [1]: 99* %; Test A rating (% disease control), marked * (Botrytis cinerea): 100* %; Test I rating (% disease control), marked * [2]: 81* %
COc1ccc(-c2c(C)nn(C)c2Nc2c(C)cccc2Br)c(Cl)c1 [Compound 263, N-(2-bromo-6-methylphenyl)-4-(2-chloro-4-methoxyphenyl)-1,3-dimethyl-1H-pyrazol-5-amine]	–	–	–	–	pest or weed control (Septoria tritici; Zymoseptoria tritici): 100%; pest or weed control at 40 µg/mL [1]: 79%; pest or weed control at 40 µg/mL (Botrytis cinerea; [3]): 99%; Test I rating (% disease control), marked * [2]: 13* %; Test E rating (% disease control), marked * (Septoria nodorum): 0* %
Cc1nn(C)c(Nc2ccccc2Cl)c1-c1ccc(F)cc1Br [compound 272]	100	99	100	100	–
Cc1nn(C)c(Nc2ccccc2Br)c1-c1ccc(F)cc1Br [compound 242]	–	–	–	–	Test F rating (% disease control), marked * (Septoria tritici): 100* %; Test H rating (% disease control), marked * [1]: 96* %; Test A rating (% disease control), marked * (Botrytis cinerea): 99* %; Test I rating (% disease control), marked * [2]: 99* %
Cc1nn(C)c(Nc2c(Cl)cccc2Cl)c1-c1ccc(F)cc1F [compound 251]	100	100	100	100	–
COc1ccc(-c2c(C)nn(C)c2Nc2c(C)cccc2F)c(F)c1 [Compound 259, 4-(2-fluoro-4-methoxyphenyl)-N-(2-fluoro-6-methylphenyl)-1,3-dimethyl-1H-pyrazol-5-amine]	–	–	–	–	pest or weed control (Septoria tritici; Zymoseptoria tritici): 100%; pest or weed control at 40 µg/mL [1]: 82%; pest or weed control at 40 µg/mL (Botrytis cinerea; [3]): 100%; pest or weed control at 40 µg/mL [2, 4]: 90%; Test E rating (% disease control), marked * (Septoria nodorum): 0* %
Cc1nn(C)c(Nc2c(F)cc(Cl)cc2F)c1-c1ccc(C#N)cc1F [Compound 150, 4-[5-[(4-chloro-2,6-difluorophenyl)amino]-1,3-dimethyl-1H-pyrazol-4-yl]-3-fluorobenzonitrile]	–	–	–	–	pest or weed control at 200 µg/mL (Septoria tritici; Zymoseptoria tritici, 100 = 100% disease control, 0 = no disease control relative to the controls): 100%; pest or weed control at 200 µg/mL ([1]; read-out: Test H rating (disease control), wheat leaf rust, sprayed the day before inoculation, 100 = 100% disease control, 0 = no disease control): 100%; pest or weed control at 200 µg/mL (Botrytis cinerea; Botrytis cinerea, in Solanum lycopersicum, read-out: Test A rating (disease control), tomato Botrytis, 100 = 100% disease control, 0 = no disease control relative to the controls): 100%; pest or weed control at 200 µg/mL ([2]; Blumeria graminis, in Triticum aestivum, read-out: Test I rating (disease control), wheat powdery mildew, 100 = 100% disease control, 0 = no disease control relative to the controls): 100%
Cc1nn(C)c(Nc2ccc(F)cc2Cl)c1-c1ccc(Br)cc1F [compound 232]	100	90	79	99	–
Cc1nn(C)c(Nc2c(F)cc(F)cc2Cl)c1-c1ccc(Br)cc1F [compound 234]	100	91	97	79	–
Cc1nn(C)c(Nc2c(F)cc(Cl)cc2F)c1-c1ccc(Br)cc1F [compound 236]	100	28	47	0	–
Cc1nn(C)c(Nc2ccccc2I)c1-c1ccc(F)cc1F [compound 246]	100	98	100	99	–
Cc1nn(C)c(Nc2ccccc2I)c1-c1ccc(F)cc1Br [compound 243]	100	99	100	100	–
COc1ccc(-c2c(C)nn(C)c2Nc2c(C)cccc2Cl)c(Cl)c1 [Compound 262, 4-(2-chloro-4-methoxyphenyl)-N-(2-chloro-6-methylphenyl)-1,3-dimethyl-1H-pyrazol-5-amine]	–	–	–	–	pest or weed control (Septoria tritici; Zymoseptoria tritici): 100%; pest or weed control at 40 µg/mL [1]: 85%; pest or weed control at 40 µg/mL (Botrytis cinerea; [3]): 97%; pest or weed control at 40 µg/mL [2, 4]: 79%; Test E rating (% disease control), marked * (Septoria nodorum): 0* %
Cc1nn(C)c(Nc2ccc(F)cc2Cl)c1-c1ccc(C#N)cc1F [Compound 248]	100	99	99	99	–
COc1ccc(-c2c(C)nn(C)c2Nc2c(F)cccc2Br)c(F)c1 [Compound 261, N-(2-bromo-6-fluorophenyl)-4-(2-fluoro-4-methoxyphenyl)-1,3-dimethyl-1H-pyrazol-5-amine]	–	–	–	–	pest or weed control (Septoria tritici; Zymoseptoria tritici): 100%; pest or weed control at 40 µg/mL [1]: 97%; pest or weed control at 40 µg/mL [2, 4]: 95%; Test E rating (% disease control), marked * (Septoria nodorum): 0* %
Cc1cccc(Cl)c1Nc1c(-c2ccc(F)cc2Br)c(C)nn1C [Compound 276, 4-(2-bromo-4-fluorophenyl)-N-(2-chloro-6-methylphenyl)-1,3-dimethyl-1H-pyrazol-5-amine]	–	–	–	–	pest or weed control (Septoria tritici; Zymoseptoria tritici): 100%; pest or weed control at 40 µg/mL [1]: 99%; pest or weed control at 40 µg/mL (Botrytis cinerea; [3]): 100%; pest or weed control at 40 µg/mL [2, 4]: 92%
Cc1cccc(C)c1Nc1c(-c2ccc(F)cc2F)c(C)nn1C [Compound 270, 4-(2,4-difluorophenyl)-N-(2,6-dimethylphenyl)-1,3-dimethyl-1H-pyrazol-5-amine]	–	–	–	–	pest or weed control (Septoria tritici; Zymoseptoria tritici): 100%; pest or weed control at 40 µg/mL [1]: 41%; pest or weed control at 40 µg/mL (Botrytis cinerea; [3]): 98%; pest or weed control at 40 µg/mL [2, 4]: 91%
Cc1nn(C)c(Nc2c(F)cc(F)cc2Br)c1-c1ccc(Br)cc1F [compound 235]	100	96	99	90	–
Cc1nn(C)c(Nc2c(Cl)cc(F)cc2Cl)c1-c1ccc(Br)cc1F [compound 233]	100	91	36	89	–
Cc1nn(C)c(Nc2c(Cl)cccc2Cl)c1-c1ccc(F)cc1Br [compound 256]	–	–	–	–	Test F rating (% disease control), marked * (Septoria tritici): 100* %; Test H rating (% disease control), marked * [1]: 95* %; Test A rating (% disease control), marked * (Botrytis cinerea): 99* %; Test I rating (% disease control), marked * [2]: 64* %
Cc1nn(C)c(Nc2c(F)cc(F)cc2C#N)c1-c1ccc(C#N)cc1F [compound 250]	100	100	0	89	–
Cc1nn(C)c(Nc2c(F)cc(Cl)cc2Cl)c1-c1ccc(Br)cc1F [compound 237]	100	92	99	95	–
Cc1nn(C)c(Nc2c(Cl)cc(F)cc2Cl)c1-c1ccc(C#N)cc1F [compound 249]	100	98	100	92	–
